Assay results as given in US20250236619A1, “FUSED BICYCLIC COMPOUND CONTAINING PYRROLINONE” (CHIA TAI TIANQING PHARMACEUTICAL GROUP CO., LTD., priority 2022, published 2025).
Where two headings read alike, the source gives them in different places.

Tests used:
[1] = tested on: p-SLP76 phosphorylation of Jurkat cells; assay: Assay for inhibitory activity against p-SLP76 phosphorylation of Jurkat cells; type: cell-based; settings: stimulator CD3CD28, 30 min, read-out: IC50 (nM) for inhibition of p-SLP76 phosphorylation of Jurkat cells
Experimental: 2.1 Assay for Inhibitory Activity Against p-SLP76 Phosphorylation of Jurkat Cells
Jurkat cells in a good growth state were added to a centrifuge tube, centrifuged, and resuspended. The cell density was adjusted to 6.25×10^6 cells/mL, and the cells were seeded in a 384-well small-volume white plate at […]. Different compounds dissolved in DMSO were added to the wells using a nanoliter pipettor to obtain final concentrations of the compounds of 2500 nM to 10.29 nM, and a control was set; the wells were set in duplicate. After 1 h of cell culture, the stimulator CD3CD28 (manufacturer: stemcell, 4 μL) was added and the cells were incubated at 37° C. for 30 min. 3 μL of lysis buffer (manufacturer: BioAuxilium) was added to each well, and the plate was shaken at room temperature for 30 min. After the lysate was well mixed, 5 μL of pre-mixed antibody (manufacturer: BioAuxilium) in assay buffer was added and the plate was incubated overnight at room temperature. The signal values were measured on a PerkinElmer Envision multimode microplate reader (excitation: 320 nm, emission: 615 nm/665 nm), and IC50 was calculated by four-parameter filling.

[2] = molecular target: HPK1 kinase (Homo sapiens (Human), UniProt Q92918); assay: Assay for in vitro inhibitory activity against HPK1 kinase; type: biochemical; settings: HPK1 1 ng/μL, ATP 1 mM, STK Substrate 1-biotin 500 nM
Sequence of HPK1 kinase (Q92918 whole entry): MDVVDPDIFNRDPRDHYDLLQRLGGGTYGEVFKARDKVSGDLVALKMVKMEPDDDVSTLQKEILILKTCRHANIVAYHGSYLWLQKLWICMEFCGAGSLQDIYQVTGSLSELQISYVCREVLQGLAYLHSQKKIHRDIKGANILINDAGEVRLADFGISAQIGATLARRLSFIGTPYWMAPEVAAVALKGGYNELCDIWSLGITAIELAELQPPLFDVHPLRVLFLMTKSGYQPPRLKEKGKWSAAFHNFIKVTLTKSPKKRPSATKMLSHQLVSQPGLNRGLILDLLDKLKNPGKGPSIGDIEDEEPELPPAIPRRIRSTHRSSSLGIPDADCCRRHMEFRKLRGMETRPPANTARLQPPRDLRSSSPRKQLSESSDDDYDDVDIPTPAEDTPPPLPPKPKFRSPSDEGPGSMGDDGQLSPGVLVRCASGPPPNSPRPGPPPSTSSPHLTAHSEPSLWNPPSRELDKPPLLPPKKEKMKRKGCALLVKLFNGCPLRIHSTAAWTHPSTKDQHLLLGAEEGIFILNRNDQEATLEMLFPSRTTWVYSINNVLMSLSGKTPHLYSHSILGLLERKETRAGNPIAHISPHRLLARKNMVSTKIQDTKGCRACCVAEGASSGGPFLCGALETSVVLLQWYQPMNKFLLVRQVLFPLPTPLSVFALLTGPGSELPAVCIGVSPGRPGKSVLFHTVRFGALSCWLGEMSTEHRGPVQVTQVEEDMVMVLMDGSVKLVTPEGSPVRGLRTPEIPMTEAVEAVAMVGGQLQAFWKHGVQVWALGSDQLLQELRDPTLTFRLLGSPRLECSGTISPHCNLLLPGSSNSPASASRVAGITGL
Experimental: Experimental Example 1: Assay for In Vitro Inhibitory Activity Against HPK1 Kinase A kinase buffer (Enzymatic buffer 5×) was diluted to 1×, and 10 mM MgCl2, 1 mM DTT, and 0.005% Tween 20 were added. A 100 ng/μL HPK1 (Life technology) stock solution was diluted with the kinase buffer to obtain a 1.67×, 1.67 ng/μL working solution (final concentration: 1 ng/μL), and the working solution was seeded in a 384-well plate at 6 μL/well. Different compounds dissolved in DMSO were added to the wells using a nanoliter pipettor to obtain final concentrations of the compounds of 1000 nM to 0.244 nM (4-fold serial dilution, 7 concentrations in total), and blank control wells (without enzyme) and negative control wells (with enzyme, plus vehicle DMSO) were set; the wells were set in duplicate. After the enzyme and the compounds were incubated at room temperature for 1 h, a 5×, 5 mM ATP dilution (final concentration: 1 mM) in the kinase buffer was mixed with a 5×, […] substrate (Cisbio, STK Substrate 1-biotin; final concentration: 500 nM) in equal volume, and the mixture was added to the plate at 4 µL/well. The plate was sealed with a film and then incubated at room temperature for 2 h. An assay antibody solution was prepared by mixing the antibody STK Antibody-cryptate (Cisbio, 5 μL/test) and a 4×, 500 nM Streptavidin-XL665 (Cisbio; final concentration: 125 nM) in equal volume and added to the plate at 10 μL/well. The plate was incubated at room temperature for 1 h. The signal values (excitation: […]) were measured using a PE Envision multimode microplate reader, and IC50 was calculated by four-parameter fitting.

Compound | IC50 ([1]; Homo sapiens, 0.5 h) [nM] | IC50 [2] [nM] | IC50 [1] [nM]
CN(C)Cc1nc(Nc2cnc(-c3ccnc4c3c3c(n4C)CCC3)c3c2C(=O)NC3)ccc1C1CCOCC1 [Compound I-6] | < 50 | 2.5 | –
CN(C)Cc1nc(Nc2ccc(-c3ccnc4c3c3c(n4C)CCC3)c3c2C(=O)NC3)ccc1C1CCOC1 (stereo not drawn) [Compound I-8] | < 50 | 3.1 | –
CN(C)Cc1nc(Nc2cnc(-c3ccnc4c3c3c(n4C)CCC3)c3c2C(=O)NC3)ccc1C1(O)CCOCC1 [Compound I-10] | 50 to 100 | 5.6 | –
CN(C)Cc1nc(Nc2ccc(-c3cnn4ccc5ccoc5c34)c3c2C(=O)NC3)ccc1C1CCOCC1 [Compound I-11] | – | 1.6 | –
CN(C)Cc1nc(Nc2ccc(-c3ccnc4c3c3c(n4C)CCC3)c3c2C(=O)NC3)ccc1N1CC[C@@H](O)C1 [Compound I-12] | – | 5.1 | –
CN(C)Cc1nc(Nc2cnc(-c3ccnc4c3c3c(n4C)CCC3)c3c2C(=O)NC3)ccc1N1CCOCC1 [Compound I-13] | – | 3.5 | –
[2H]C([2H])([2H])N(Cc1nc(Nc2cnc(-c3ccnc4c3c3c(n4C)CCC3)c3c2C(=O)NC3)ccc1C1CCOCC1)C([2H])([2H])[2H] [Compound I-14] | – | 1.4 | –
[2H]C([2H])(c1nc(Nc2cnc(-c3ccnc4c3c3c(n4C)CCC3)c3c2C(=O)NC3)ccc1C1CCOCC1)N(C)C [Compound I-17] | < 50 | – | –
CN(C)Cc1nc(Nc2ccc(-c3nnc4ccc5c(n34)CCC5)c3c2C(=O)NC3)ccc1C1CCOCC1 [Compound I-18] | – | 9.8 | –
CN(C)Cc1nc(Nc2ccc(-c3ncnc4c3c3c(n4C)CCC3)c3c2C(=O)NC3)ccc1C1CCOCC1 [Compound I-20] | – | 3.2 | –
CN(C)Cc1nc(Nc2ccc(-c3ncnc4[nH]c5ccccc5c34)c3c2C(=O)NC3)ccc1C1CCOCC1 [Compound I-22] | – | 7.5 | 50 to 100
CN(C)Cc1nc(Nc2ccc(-c3ncnc4[nH]c5c(c34)CCC5)c3c2C(=O)NC3)ccc1C1CCOCC1 [Compound I-24] | 50 to 100 | – | –
CN(C)Cc1nc(Nc2ccc(-c3nnc4cc5c(nn34)CCC5)c3c2C(=O)NC3)ccc1C1CCOCC1 [Compound I-26] | – | 16 | –
CN(C)Cc1nc(Nc2ccc(-c3nnc4cc5c(cn34)CCC5)c3c2C(=O)NC3)ccc1C1CCOCC1 [Compound I-27] | – | 23 | –
CN(C)Cc1nc(Nc2ccc(-c3cnc4ccc5occc5n34)c3c2C(=O)NC3)ccc1C1CCOCC1 [Compound I-28] | < 50 | 2 | –
CN(C)Cc1nc(Nc2ccc(-c3cnn4cc5c(nc34)CCC5)c3c2C(=O)NC3)ccc1C1CCOCC1 [Compound I-30] | – | 3.6 | 50 to 100
CN(C)Cc1nc(Nc2ccc(-c3cnc4ccc5c(ccn5C)n34)c3c2C(=O)NC3)ccc1C1CCOCC1 [Compound I-32] | – | 4.4 | < 50
CN(C)Cc1nc(Nc2ccc(-c3nnc4ccc5occc5n34)c3c2C(=O)NC3)ccc1C1CCOCC1 [Compound I-33] | – | 2.9 | < 50
CN(C)Cc1nc(Nc2ccc(-c3cnn4c3CC3(CC3)C4)c3c2C(=O)NC3)ccc1C1CCOCC1 [Compound I-34] | < 50 | – | –
CN(C)Cc1nc(Nc2ccc(-c3cnc4ccc5c(n34)CCO5)c3c2C(=O)NC3)ccc1C1CCOCC1 [Compound I-35] | 50 to 100 | – | –
CN(C)Cc1nc(Nc2ccc(-c3nnc4ccc5c(n34)OCC5)c3c2C(=O)NC3)ccc1C1CCOCC1 [Compound I-36] | – | 5.3 | 50 to 100
CN(C)Cc1nc(Nc2ccc(-c3cnn4ccc5occc5c34)c3c2C(=O)NC3)ccc1C1CCOCC1 [Compound I-38] | < 50 | – | –
CN(C)Cc1nc(Nc2cnc(-c3cnc4ccc5sccc5n34)c3c2C(=O)NC3)ccc1C1CCOCC1 [Compound I-41] | – | 18 | –
CN(C)Cc1nc(Nc2ccc(-c3cnc4n3C3CC3C4)c3c2C(=O)NC3)ccc1C1CCOCC1 (stereo not drawn) [Compound I-43] | – | 16 | –
CN(C)Cc1nc(Nc2ccc(-c3cnc4ccc5c(n34)OCC5)c3c2C(=O)NC3)ccc1C1CCOCC1 [Compound I-44] | < 50 | 3.5 | –
CN(C)Cc1nc(Nc2ccc(-c3cnc4ccc5occc5n34)c3c2C(=O)NC3)ccc1C1(O)CCOCC1 [Compound I-45] | < 50 | 3.4 | –

Compound | IC50 ([1]; Homo sapiens, 0.5 h) [nM] | IC50 [2] [nM] | IC50 [1] [nM]
CN(C)Cc1nc(Nc2cnc(-c3cnn4ccc5occc5c34)c3c2C(=O)NC3)ccc1C1CCOCC1 [Compound I-46] | < 50 | – | –
CN(C)Cc1nc(Nc2cnc(-c3cnn4ccc5occc5c34)c3c2C(=O)NC3)ccc1N1CCOCC1 [Compound I-47] | < 50 | – | –
CN(C)Cc1nc(Nc2ccc(-c3cnc4cnc5occc5n34)c3c2C(=O)NC3)ccc1C1CCOCC1 [Compound I-48] | < 50 | – | –
CN(C)Cc1nc(Nc2ccc(-c3cnn4ccc5occc5c34)c3c2C(=O)NC3)ccc1N1CCN(C)C1=O [Compound I-49] | – | 6.1 | < 50
CN(C)Cc1nc(Nc2ccc(-c3cnn4ccc5occc5c34)c3c2C(=O)NC3)ccc1N1CCCC1=O [Compound I-51] | – | 5.8 | < 50
CN(C)Cc1nc(Nc2ccc(-c3cnc4ccc5occc5n34)c3c2C(=O)NC3)ccc1N1CCCC1=O [Compound I-52] | < 50 | – | –
[2H]C([2H])(c1nc(Nc2ccc(-c3cnn4c3CC3(CC3)C4)c3c2C(=O)NC3)ccc1C1CCOCC1)N(C)C [Compound I-53] | < 50 | – | –
CN(C)Cc1nc(Nc2ccc(-c3cnc4cnc5occc5n34)c3c2C(=O)NC3)ccc1C1CCOC1 (stereo not drawn) [Compound I-54] | < 50 | – | –
CN(C)Cc1nc(Nc2ccc(-c3cnn4ccc5occc5c34)c3c2C(=O)NC3)ccc1C1CC(=O)N(C)C1 (stereo not drawn) [Compound I-59] | < 50 | – | –
CN(C)Cc1nc(Nc2ccc(-c3cnn4ccc5occc5c34)c3c2C(=O)NC3)ccc1C1CCN(C)C(=O)C1 (stereo not drawn) [Compound I-60] | < 50 | 2.8 | –
CN(C)Cc1nc(Nc2ccc(-c3cnc4cnc5occc5n34)c3c2C(=O)NC3)ccc1C1CCN(C)C(=O)C1 (stereo not drawn) [Compound I-61] | 50 to 100 | – | –
CN(C)Cc1nc(Nc2ccc(-c3cnn4ccc5occc5c34)c3c2C(=O)NC3)ccc1C1CCCO1 (stereo not drawn) [Compound I-64] | < 50 | – | –
CN(C)Cc1nc(Nc2ccc(-c3cnc4ccc5occc5n34)c3c2C(=O)NC3)ccc1C1CCN(C)C(=O)C1 (stereo not drawn) [Compound I-66] | < 50 | – | –
CN(C)Cc1nc(Nc2ccc(-c3cnn4c3CC3(CC3)C4)c3c2C(=O)NC3)ccc1C1CCN(C)C(=O)C1 (stereo not drawn) [Compound I-67] | < 50 | – | –
CN(C)Cc1nc(Nc2ccc(-c3cnc4cnc5occc5n34)c3c2C(=O)NC3)ccc1[C@@H]1CCN(C)C(=O)C1 [Compound I-68] | – | 7.7 | –
CN(C)Cc1nc(Nc2ccc(-c3cnc4cnc5occc5n34)c3c2C(=O)NC3)ccc1[C@H]1CCN(C)C(=O)C1 [Compound I-69] | – | 3.7 | < 50
CC(=O)N(C)c1ccc(Nc2ccc(-c3cnn4ccc5occc5c34)c3c2C(=O)NC3)nc1CN(C)C [Compound I-70] | < 50 | – | –
CN(C)Cc1nc(Nc2ccc(-c3cnc4ccc5occc5n34)c3c2C(=O)NC3)ccc1[C@H]1CCN(C)C(=O)C1 [Compound I-72] | – | 3.7 | < 50
CN(C)Cc1nc(Nc2ccc(-c3cnc4ccc5occc5n34)c3c2C(=O)NC3)ccc1[C@@H]1CCN(C)C(=O)C1 [Compound I-73] | – | 2.9 | < 50
CN(C)Cc1nc(Nc2ccc(-c3cnn4c3CC3(CC3)C4)c3c2C(=O)NC3)ccc1N1CCN(C)C(=O)C1 [Compound I-75] | – | 3.4 | 50 to 100
CN(C)Cc1nc(Nc2ccc(-c3cnn4ccc5occc5c34)c3c2C(=O)NC3)ccc1N1CCN(C)C(=O)C1 [Compound I-76] | < 50 | – | –
CN(C)Cc1nc(Nc2ccc(-c3cnc4cnc5occc5n34)c3c2C(=O)NC3)ccc1C1CCN(C)CC1 [Compound I-80] | < 50 | – | –
CN(C)Cc1nc(Nc2ccc(-c3cnn4ccc5occc5c34)c3c2C(=O)NC3)ccc1-c1ccn(C)c(=O)c1 [Compound I-81] | < 50 | – | –
CN(C)Cc1nc(Nc2ccc(-c3ccnc4c3cc3n4CCC3)c3c2C(=O)NC3)ccc1C1CCN(C)C(=O)C1 (stereo not drawn) [Compound I-82] | – | 3 | –
CNCc1nc(Nc2ccc(-c3cnn4ccc5occc5c34)c3c2C(=O)NC3)sc1C1CCOCC1 [Compound I-85] | < 50 | – | –
